Patent US10829458B2 (Araxes Pharma LLC, priority 2015, dated 2020)

Target: T1, KRAS G12C 1-169, his-tagged protein, GDP-loaded (Homo sapiens, UniProt P01116, G12C)
T1 construct: KRAS G12C 1-169, his-tagged protein, GDP-loaded
Assay: Biochemical assay: covalent modification of KRAS G12C measured by mass spectrometry (RapidFire/TOF or Q-Exactive)
Conditions: covalent binding to KRAS G12C
Outline: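 GDP-loaded his-tagged KRAS G12C 1-169 at 2 μM in 20 mM Hepes, 150 mM NaCl, 1 mM MgCl2 incubated at room temperature with compound (10, 30 or 100 μM final, 2% DMSO) for 30 min, 2 h or 24 h, then quenched with formic acid. Intact-protein LC-MS (RapidFire/TOF or Q-Exactive) with deconvolution quantified modified versus unmodified protein.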

Row | SMILES | Binding % (compounds of structure (I)) | also measured
1 | C=CC(=O)N1CCC2(C1)CN(c1ncnc3c(F)c(-c4c(O)cccc4F)c(Cl)cc13)C2 [II-8, 1-(2-(6-chloro-8-fluoro-7-(2-fluoro-6-hydroxyphenyl)quinazolin-4-yl)-2,6-diazaspiro[3.4]octan-6-yl)prop-2-en-1-one] |  | Binding % (compounds of structure (II)): + (+ indicates binding activity up to 50%)
2 | C=CC(=O)N1CCN(c2ncnc3c(F)c(-c4c(O)cccc4F)c(Cl)cc23)CC12CC2 [III-10, 1-(7-(6-chloro-8-fluoro-7-(2-fluoro-6-hydroxy-phenyl)quinazolin-4-yl)-4,7-diazaspiro [2.5]octan-4-yl)prop-2-en-1-one] |  | Binding % (compounds of structure (III)): + (+ indicates binding activity up to 50%)
3 | C=CC(=O)N1CCN(c2nc(C(N)=O)nc3c(F)c(-c4c(O)cccc4F)c(Cl)cc23)CC1 [Example I-85, 4-(4-acryloyl-piperazin-1-yl)-6-chloro-8-fluoro-7-(2-fluoro-6-hydroxyphenyl) quinazoline-2-carboxamide] | +++ (+++ indicates binding activity greater than 90%) | 
4 | C=CC(=O)N1CCN(c2nc(OCCN3CCOCC3)nc3c(F)c(-c4c(O)cccc4F)c(Cl)cc23)CC1 (atropisomer, axis not shown) [Example I-29, (S)-1-(4-(6-chloro-8-fluoro-7-(2-fluoro-6-hydroxyphenyl)-2-(2-morpholino-ethoxy)quinazolin-4-yl)piperazin-1-yl)prop-2-en-1-one] | +++ (+++ indicates binding activity greater than 90%) | 
5 | C=CC(=O)N1CCN(c2ncnc3c(F)c(-c4c(C)ccc5cn[nH]c45)c(Cl)cc23)[C@@H](C)C1 [III-3, 1-((3S)-4-(6-chloro-8-fluoro-7-(6-methyl-1H-indazol-7-yl)quinazolin-4-yl)-3-methyl-piperazin-1-yl)prop-2-en-1-one] |  | Binding % (compounds of structure (III)): ++ (++ indicates activity from 50% to 90%)
6 | C=CC(=O)N1CCN(c2nc(NC3CCN(C4CCC4)CC3)nc3c(F)c(-c4c(C)ccc5[nH]ncc45)c(Cl)cc23)CC1 [Example I-132, 1-(4-(6-chloro-2-(1-cyclobutyl-piperidin-4-ylamino)-8-fluoro-7-(5-methyl-1H-indazol-4-yl)quinazolin-4-yl)piperazin-1-yl) prop-2-en-1-one] | +++ (+++ indicates binding activity greater than 90%) | 
7 | C=CC(=O)N1CCN(c2c(C#N)c(N3CC(N(C)C)C3)nc3c(F)c(-c4c(O)cccc4F)c(Cl)cc23)CC1 [Example I-197, 4-(4-acryloyl-piperazin-1-yl)-6-chloro-2-(3-(dimethyl-amino)azetidin-1-yl)-8-fluoro-7-(2-fluoro-6-hydroxyphenyl) quinoline-3-carbonitrile] | ++ (++ indicates binding activity from 50 to 90%) | 
8 | C=CC(=O)N1CCN(c2nc(OC3CCN(C(C)=O)CC3)nc3c(F)c(-c4c(O)cccc4F)c(Cl)cc23)CC1 [Example I-115, 1-(4-(2-(1-acetylpiperidin-4-yloxy)-6-chloro-8-fluoro-7-(2-fluoro-6-hydroxyphenyl)quinazolin-4-yl)piperazin-1-yl) prop-2-en-1-one] | +++ (+++ indicates binding activity greater than 90%) | 
9 | C=CC(=O)N1CCN(c2nc(NC3CCCN(C4CC4)C3)nc3c(F)c(-c4c(O)cccc4F)c(Cl)cc23)CC1 (stereo not shown) [Example I-120, 1-(4-(6-chloro-2-(1-cyclopropyl-piperidin-3-ylamino)-8-fluoro-7-(2-fluoro-6-hydroxyphenyl)quinazolin-4-yl)piperazin-1-yl) prop-2-en-1-one] | ++ (++ indicates binding activity from 50 to 90%) | 
10 | C=CC(=O)N1CCN(c2nc(OCCc3ccccn3)nc3c(F)c(-c4c(O)cccc4F)c(Cl)cc23)CC1 [Example I-45, 1-(4-(6-chloro-8-fluoro-7-(2-fluoro-6-hydroxyphenyl)-2-(2-(pyridin-2-yl)ethoxy)quinazolin-4-yl)piperazin-1-yl)prop-2-en-1-one] | +++ (+++ indicates binding activity greater than 90%) | 
11 | C=CC(=O)N1CCN(c2nc(NCCc3ccccn3)nc3c(F)c(-c4c(C)ccc5[nH]ncc45)c(Cl)cc23)CC1 [Example I-142, 1-(4-(6-chloro-8-fluoro-7-(5-methyl-1H-indazol-4-yl)-2-(2-(pyridin-2-yl)ethylamino)quinazolin-4-yl)piperazin-1-yl) prop-2-en-1-one] | +++ (+++ indicates binding activity greater than 90%) | 
12 | C=CC(=O)N1CCN(c2nc(OC3CCN(C)CC3)nc3c(F)c(-c4cc(O)cc5ccccc45)c(Cl)cc23)CC1 [Example I-93, 1-(4-(6-chloro-8-fluoro-7-(3-hydroxy-naphthalen-1-yl)-2-(1-methyl-piperidin-4-yloxy)quinazolin-4-yl)piperazin-1-yl)prop-2-en-1-one] | +++ (+++ indicates binding activity greater than 90%) | 
13 | C=CC(=O)N1CCN(c2nc(OCCN3CCOCC3)nc3c(F)c(-c4c(O)cccc4F)c(Cl)cc23)CC1 [Example I-10, 1-(4-(6-chloro-8-fluoro-7-(2-fluoro-6-hydroxyphenyl)-2-(2-morpholino-ethoxy)quinazolin-4-yl)piperazin-1-yl)prop-2-en-1-one] | +++ (+++ indicates binding activity greater than 90%) | 
14 | C=CC(=O)N1[C@H](C)CN(c2ncnc3c(F)c(-c4c(C)ccc5cn[nH]c45)c(Cl)cc23)C[C@@H]1C [III-35, 1-((2S,6R)-4-(6-chloro-8-fluoro-7-(6-methyl-1H-indazol-7-yl)quinazolin-4-yl)-2,6-dimethyl-piperazin-1-yl)prop-2-en-1-one] |  | Binding % (compounds of structure (III)): +++ (+++ indicates binding activity greater than 90%)
15 | C=CC(=O)N1CCN(c2nc(CCN(C)C)nc3c(F)c(-c4c(C)ccc5[nH]ncc45)c(Cl)cc23)CC1 [Example I-34, 1-(4-(6-chloro-2-(2-(dimethyl-amino)ethyl)-8-fluoro-7-(5-methyl-1H-indazol-4-yl)quinazolin-4-yl)piperazin-1-yl)prop-2-en-1-one] | +++ (+++ indicates binding activity greater than 90%) | 
16 | C=CC(=O)N1CCN(c2nc(NC3CCN(C(C)C)CC3)nc3c(F)c(-c4c(O)cccc4F)c(Cl)cc23)CC1 [Example I-84, 1-(4-(6-chloro-8-fluoro-7-(2-fluoro-6-hydroxyphenyl)-2-(1-isopropyl-piperidin-4-ylamino)quinazolin-4-yl)piperazin-1-yl)prop-2-en-1-one] | +++ (+++ indicates binding activity greater than 90%) | 
17 | C=CC(=O)N1CCN(c2ncnc3c(F)c(-c4c(O)cccc4F)c(Cl)cc23)CC1C(F)(F)F (stereo not shown) [III-11, 1-(4-(6-chloro-8-fluoro-7-(2-fluoro-6-hydroxy-phenyl)quinazolin-4-yl)-2-(trifluoro-methyl)piperazin-1-yl)prop-2-en-1-one] |  | Binding % (compounds of structure (III)): +++ (+++ indicates binding activity greater than 90%)
18 | C=CC(=O)N1CCN(c2nc(OC3CN(C(C)C)C3)nc3c(F)c(-c4c(O)cccc4F)c(Cl)cc23)CC1 [Example I-178, 1-(4-(6-chloro-8-fluoro-7-(2-fluoro-6-hydroxyphenyl)-2-((1-isopropyl-azetidin-3-yl)oxy)quinazolin-4-yl)piperazin-1-yl)prop-2-en-1-one] | ++ (++ indicates binding activity from 50 to 90%) | 
19 | C=CC(=O)N1CCN(c2nc(OCc3ncco3)nc3c(F)c(-c4c(O)cccc4F)c(Cl)cc23)CC1 [Example I-109, 1-(4-(6-chloro-8-fluoro-7-(2-fluoro-6-hydroxyphenyl)-2-(oxazol-2-ylmethoxy)quinazolin-4-yl)piperazin-1-yl) prop-2-en-1-one] | +++ (+++ indicates binding activity greater than 90%) | 
20 | C=CC(=O)N1CCN(c2nc(OCC(O)CN(C)C)nc3c(F)c(-c4cc(O)cc5ccccc45)c(Cl)cc23)CC1 (stereo not shown) [Example I-58, 1-(4-(6-chloro-2-(3-(dimethyl-amino)-2-hydroxy-propoxy)-8-fluoro-7-(3-hydroxy-naphthalen-1-yl)quinazolin-4-yl)piperazin-1-yl)prop-2-en-1-one] | +++ (+++ indicates binding activity greater than 90%) | 
21 | C=CC(=O)N1CCN(c2nc(OCCN3CCC(F)CC3)nc3c(F)c(-c4c(O)cccc4F)c(Cl)cc23)CC1 [Example I-76, 1-(4-(6-chloro-8-fluoro-7-(2-fluoro-6-hydroxyphenyl)-2-(2-(4-fluoro-piperidin-1-yl)ethoxy)quinazolin-4-yl)piperazin-1-yl)prop-2-en-1-one] | +++ (+++ indicates binding activity greater than 90%) | 
22 | C=CC(=O)N1CCN(c2nc(OCc3ncccn3)nc3c(F)c(-c4c(O)cccc4F)c(Cl)cc23)CC1 [Example I-105, 1-(4-(6-chloro-8-fluoro-7-(2-fluoro-6-hydroxyphenyl)-2-(pyrimidin-2-ylmethoxy)quinazolin-4-yl)piperazin-1-yl) prop-2-en-1-one] | +++ (+++ indicates binding activity greater than 90%) | 
23 | C=CC(=O)N1CCN(c2nc(OCCc3ccc(F)cn3)nc3c(F)c(-c4c(O)cccc4F)c(Cl)cc23)CC1 [Example I-100, 1-(4-(6-chloro-8-fluoro-7-(2-fluoro-6-hydroxyphenyl)-2-(2-(5-fluoro-pyridin-2-yl)ethoxy)quinazolin-4-yl)piperazin-1-yl) prop-2-en-1-one] | +++ (+++ indicates binding activity greater than 90%) | 
24 | C=CC(=O)N1CCN(c2ncnc3c(F)c(-c4c(O)cccc4F)c(Cl)cc23)C2CC21 (stereo not shown) [III-16, 1-(5-(6-chloro-8-fluoro-7-(2-fluoro-6-hydroxy-phenyl)quinazolin-4-yl)-2,5-diazabicyclo [4.1.0.]heptan-2-yl)prop-2-en-1-one] |  | Binding % (compounds of structure (III)): + (+ indicates binding activity up to 50%)
25 | C=CC(=O)N1CCN(c2nc(OCCN3CCOCC3=O)nc3c(F)c(-c4cc(O)cc5ccccc45)c(Cl)cc23)CC1 [Example I-57, 4-(2-(4-(4-acryloyl-piperazin-1-yl)-6-chloro-8-fluoro-7-(3-hydroxy-naphthalen-1-yl)quinazolin-2-yloxy)ethyl) morpholin-3-one] | +++ (+++ indicates binding activity greater than 90%) | 
